Test system: HCT116
Experiment: efficacy (fitted maximal change in viability relative to DMSO control); higher = less cytotoxic (negative = loss of viability)
Conditions: 48 h
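Further: Luminescence-based viability readout, five doses per compound, normalized against on-plate DMSO and empty-well controls, followed by dose-response curve fitting for every drug.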

SMILES | efficacy
c1ccc(-c2nn3c(c2-c2ccnc4cc(OCCN5CCOCC5)ccc24)CCC3)nc1 | -41.1%
CC(=O)O/N=C1\C(=O)N(Cc2cc(Cl)ccc2Cl)c2ccc(Cl)cc21 | -71.8%
CC(C)N(CCCNC(=O)Nc1ccc(C(C)(C)C)cc1)C[C@H]1O[C@@H](n2ccc3c(N)ncnc32)[C@H](O)[C@@H]1O | -31.1%
Cc1ccc(/C=N/NC(=O)c2ccccc2Oc2ccccc2)o1 | -6.56%
Cc1ncc(Cl)cc1NCc1ccc(C(=O)NC(CC2CCCC2)C(=O)NC2CC2)s1 (stereo unspecified) | -78.2%
CCc1cc(Nc2nccc(-c3c(-c4ccc(OC)c(C(=O)Nc5c(F)cccc5F)c4)nc4ccccn34)n2)c(OC)cc1N1CCC(N2CCN([S+](C)(=O)[O-])CC2)CC1 | -21%
CCCCOc1ccc(C(=O)Nc2ccc(F)cc2F)cc1 | -14.8%
CCCCOCCOc1nc(-c2ccc(C(=O)O)c(F)c2)sc1C | -10%
CCOc1cc(/C=C2/C(=O)N(c3ccccc3)N=C2C)cc(Cl)c1OCC(=O)OC | -22.5%
CCOC1=CC=C(C=C1)N2C(=O)C3=CC=CN=C3/N=C2/[C@@H](C)N(CC4=CC=CN=C4)C(=O)CC5=CC=C(F)C(=C5)C(F)(F)F | -9.22%
Cc1cc(NC(=O)Nc2ccc(N(C)C)cc2)c2cc(F)cc(F)c2n1 | -37.6%
CN(C)c1ccc(Nc2nc(N)n(C(=O)c3c(F)cccc3F)n2)cc1 | -100%
Cc1nn(C)c(COc2ccc(N3CCN([S+](=O)([O-])N(C)C)CC3)cc2)c1-c1cccc2c(CCCOc3cccc4ccccc34)c(C(=O)O)n(CCN3CCOCC3)c12 | -17.2%
CN1C(=O)C(=C\C2=C1N=C(NC3=CC=CC(=C3)C(O)=O)N=C2)/C4=C(Cl)C=CC=C4Cl | -10.3%
Cc1c(-c2c(-c3ccc(F)o3)sc3ncnc(O[C@@H](Cc4ccccc4OCc4ccnn4CC(F)(F)F)C(=O)O)c23)ccc(OCCN2CCN(C)CC2)c1Cl | 9.5%
CNc1nc(C)nc(N[C@H]2CCC[C@@H](C(=O)NCc3ccc(C#N)cc3C(F)(F)F)C2)n1 | -20.5%
COc1cc(OC)c(NC(=O)Nc2cc(C)on2)cc1Cl | -7.13%
COc1cc[nH]c2ncc(C(=O)C(=O)N3CCN(C(=O)c4ccccc4)C[C@H]3C)c1-2 | -10.7%
COC1=CC=C(Cl)C=C1\C2=C\C(=O)NC(=S)N2CC(N)=O | -13.9%
COc1ccc2c(c1)CC[C@@H](CN(C)CC(=O)O)[C@H]2c1ccccc1 | -15.5%
COc1cccc(Nc2c(C(N)=O)cnc3c(C)cc([S+](=O)([O-])c4cccc(C(=O)N(C)C)c4)cc23)c1 | -45.1%
C[C@@H]1CCN(C(=O)N2CCCC2)C[C@@H]1N(C)c1ncnc2[nH]ccc12 | -8.82%
Cn1cc(-c2ccc3nnc(C(F)(F)c4ccc5ncccc5c4)n3n2)cn1 | -26.2%
Cc1cc(C)c2c(c1)[C@@H](N(Cc1cc(C(F)(F)F)cc(C(F)(F)F)c1)c1nnn(C)n1)CCCN2C[C@H]1CC[C@H](C(=O)O)CC1 | -31.2%
Clc1ccc2ncc(-c3cccc(NC4CNC4)n3)n2c1 | -10.1%
O=C(Nc1ccc(F)c(C(F)(F)F)c1)Nc1nnc(-c2ccncc2)s1 | -29%

SMILES | efficacy
O=C1CC(c2c[nH]c3ccc(F)cc23)C(=O)N1 (stereo unspecified) | -7.69%
NC(=O)c1noc([C@H](CCCC2CCCCC2)CC(=O)NO)n1 | -86.4%
NC(=O)[C@@H](CC1CC1)[C@@H](CCC(F)(F)F)C(=O)N[C@H]2\N=C(C3=CC=CC=C3)/C4=CC=CC(=C4NC2=O)F | -12.2%
Nc1nc(N)c2nc(-c3cccc(O)c3)c(-c3cccc(O)c3)nc2n1 | -7.47%
Nc1nc(OC(c2ccc(-c3cccc(F)c3)cc2)C(F)(F)F)cc(-c2ccc(C[C@@H](N)C(=O)O)cc2)n1 (stereo partly specified) | -26%
O=C1N\N=C(\C[C@@H]2CCN(C2)C(=O)C3CC3)N1C4=CC=C(C=C4)C5=CC=C6OC=CC6=C5 | -40.3%
O=C(O)c1ccc(-c2c[nH]c3ncc(-c4ccccc4)cc23)cc1C1CCCC1 | -22.5%
O=C(NC[C@H](O)CN1CCc2ccccc2C1)c1ccnc(NC2CCC2)c1 | -5.9%
O=[N+]([O-])c1ccc(-c2nc(-c3ccc(F)cc3)c(-c3ccncc3)[nH]2)cc1 | -23.7%
OC[C@H]1O[C@@H](O[C@@H]2[C@@H](CO)OC(O)(CO)[C@H]2O)[C@H](O)[C@@H](O)[C@H]1O (mixture of isomers) [Lactulose] | 9%
CC[S+](=O)([O-])N1CCC([C@@H](C)n2c(C)c(/C(O)=N/Cc3c(OC)cc(C)nc3O)c3ccccc32)CC1 (racemic) [CPI-169 racemate] | -16.2%
CN1CCN(C)C(=O)C1C2=CC=C(N/C3=N/C(=C\N(C)C3=O)C4=C(C)C(=CC=C4)NC(=O)C5=CC6=C(CCCC6)S5)C=C2 (racemic) [GDC-0834 racemate] | -21.2%
OC[C@H]1OC(O)C[C@@H](O)[C@@H]1O (stereo partly specified) [2-Deoxyglucose] | -11.9%
N=C1N[C@H]2[C@H](CS[C@H]2CCCCC(=O)O)N1 [2-Iminobiotin] | 16%
O=C(O)CCCc1c[nH]c2ccccc12 [3-indolebutyric acid] | 15%
Nc1ncnc2ccccc12 [4-Quinazolinamine] | -11.9%
N[C@@H](Cc1c[nH]c2ccc(O)cc12)C(=O)O [5-Hydroxytryptophan] | -7.82%
Nc1ncnc2c1nc(Cl)n2[C@@H]1O[C@H](CO)[C@@H](O)[C@H]1O [8-Cl-Ado] | -73.3%
CC(=O)O[C@@]12CO[C@@H]1C[C@H](O)[C@]3(C)[C@@H]2[C@H](OC(=O)C4=CC=CC=C4)[C@]5(O)C[C@H](O)/C(=C(/[C@@H](O)C3=O)C5(C)C)C [10-Deacetylbaccatin] | -50.2%
CCC(=O)O[C@@]1(CC[C@H]2[C@@H]3CCC/4=C/C(=O)CC[C@]4(C)[C@H]3CC[C@]12C)C(=O)CO [17 alpha-propionate] | -15.6%
CC(C)[C@H]1C(=O)N[C@H](CO)Cc2c[nH]c3cccc(c23)N1C [(-)-Indolactam V] | 9.83%
O=C([C@@H](Cc1cccc(C(F)(F)F)c1)N[S+](=O)([O-])c1cc(F)c2c(c1)CCNC2)N1CCCC1 [(R)-PFI-2] | -23.9%
O=C1c2c(O)cc(O)cc2O[C@H](c2ccc(O)c(O)c2)[C@H]1O [(▒)-Taxifolin] | 4.75%
Cc1cccc(-c2nn(C(=S)Nc3ccccc3)cc2-c2ccnc3ccccc23)n1 [A-83-01] | -22.3%
Clc1cc2c(NC3CCCC3)nnc(-c3ccncc3)c2cc1Cl [A-196] | 14.4%
COC1=CC2=C(C=C1OCCCN3CCCC3)\N=C(N)/C24CCC4 [A-366] | 8%

SMILES | efficacy
CC(=O)NCCCS(=O)(=O)[O-] [ACAMPROSATE CALCIUM] | 8.04%
COCc1c(-c2ccc(NC(=O)Nc3cc(C(F)(F)F)ccc3F)c(F)c2)c2c(N)ncnn2c1CN1CCOCC1 [ACTB-1003] | -76%
N#Cc1ccnc(N2C(=O)CC[C@H]2C(=O)N(c2cncc(F)c2)C(C(=O)NC2CC(F)(F)C2)c2ccccc2Cl)c1 (stereo partly specified) [AG-120] | -22.2%
C[C@H](Nc1nc(N[C@H](C)C(F)(F)F)nc(-c2cccc(Cl)n2)n1)C(F)(F)F [AG-881] | -28.1%
Cc1ccccc1C(C(=O)NC1CCCCC1)N(C(=O)Cn1ccnc1C)c1cccc(F)c1 (stereo unspecified) [AGI-5198] | -18.4%
c1ccc(CNCc2ccc(CN3CCCNCCNCCCNCC3)cc2)nc1 [AMD-3465] | -13.1%
CN1N(C2=CC=CC=C2)C(=O)C(=C1/C3=CC=CC=C3)/C(=O)C4=CC=C(C)C(=C4N)C5=CC=C6N=C(C)C=CC6=C5 [AMG PERK 44] | -31.8%
COCCOC1=CN=C2\C=C/N([C@H](C)C3=NN=C4[N]3C=C(C=C4F)C5=C[N](C)N=C5)C(=O)C2=C1 [AMG-337] | -4.95%
C[C@H]1CC[C@H](n2c3cnccc3c3cnc(Nc4ccc5c(n4)CCN(C(=O)CO)C5)nc32)CC1 [AMG-925 (FLX925)] | -21.6%
N=C(N)NN.N=C(N)NN.O=S(=O)(O)O [AMINOGUANIDINE HYDROCHLORIDE] | -9.44%
N#Cc1ccc(Oc2ccc3c(c2)COB3O)cc1 [AN-2728] | -21.2%
COCC1(CO)C(=O)C2CCN1CC2 (stereo unspecified) [APR-246] | -7.36%
Cc1cc(O)cc2c1[C@]1(C)CC[C@H]3C(C)(C)CCC[C@]3(C)[C@H]1C2 [AQX-MN-100] | 19.8%
CC1=CC=C(C=C1)\C2=N\C3=CC=C(Cl)C=C3OC2 [AR-7] | -31.7%
CC(C)[C@H](C(=O)Nc1ccc(C(=O)NO)cc1)c1ccccc1 [AR-42] | -43.8%
C=CC(=O)N1CC(N2CCN(C(=O)CNc3cc(C4(C)CC4)c(Cl)cc3O)CC2)C1 [ARS-853] | -63.4%
CN[C@@H](C)C(=O)N[C@H]1CN(C(=O)CC(C)C)CC[C@H]2CC[C@@H](C(=O)NC(c3ccccc3)c3ccccc3)N2C1=O [AT-406] | -8.4%
C[C@@H]1CN(CC(=O)N2CC(C)(C)c3ncc(Cc4ccc(F)cc4)cc32)[C@@H](CN2CCOC[C@H]2C)CN1 [AT-IAP] | -62.8%
CC(=O)N1CCC[C@H]1C(=O)N[C@@H](Cc1c[nH]cn1)C(=O)N[C@@H](CO)C(=O)N[C@@H](CS)C(=O)N[C@@H](CC(N)=O)C(N)=O [ATN-161] | -6.15%
COC1=CC2=C(OC\C(=C2\C3=CC=C(F)C=C3)CN4CCCC4)C=C1 [AX-024] | -55.9%
CCN(CCCOc1ccc2c(Nc3cc(CC(=O)Nc4cccc(F)c4)[nH]n3)ncnc2c1)CCOP(=O)(O)O [AZD1152] | -24.9%
C[N]1N=CC=C1C/2=C(\C)N(C(=O)C(=C2)/C(=O)NCC3=NC=C(C=C3)[S+](C)([O-])=O)C4=CC=CC(=C4)C(F)(F)F [AZD9668] | 12.5%
NC(=O)c1cnc(-c2ccc(C3(N)CCC3)cc2)c(-c2ccccc2)c1 [AZD-26] | -66.9%
COC1CCN(CC1)C(=O)C2=CC(=CC=C2F)CC/3=N/NC(=O)C4=CC=CC=C34 [AZD-2461] | -29.2%

— the supplement of paper PMC10290057
